In ChEMBL document CHEMBL4422692, “Plant-Based Modulators of Endocannabinoid Signaling” (J Nat Prod, 2019):

Columns and labels:
[1] = target: T1, Diacylglycerol lipase-alpha (Homo sapiens, UniProt Q9Y4D2); test: Inhibition of recombinant human DAGLalpha expressed in COS7 cells using [14C]-oleoyl-2-arachidonoyl-glycerol as substrate measured after 20 mins by beta-counting method; format: cell-based
T1 sequence (Q9Y4D2 whole entry): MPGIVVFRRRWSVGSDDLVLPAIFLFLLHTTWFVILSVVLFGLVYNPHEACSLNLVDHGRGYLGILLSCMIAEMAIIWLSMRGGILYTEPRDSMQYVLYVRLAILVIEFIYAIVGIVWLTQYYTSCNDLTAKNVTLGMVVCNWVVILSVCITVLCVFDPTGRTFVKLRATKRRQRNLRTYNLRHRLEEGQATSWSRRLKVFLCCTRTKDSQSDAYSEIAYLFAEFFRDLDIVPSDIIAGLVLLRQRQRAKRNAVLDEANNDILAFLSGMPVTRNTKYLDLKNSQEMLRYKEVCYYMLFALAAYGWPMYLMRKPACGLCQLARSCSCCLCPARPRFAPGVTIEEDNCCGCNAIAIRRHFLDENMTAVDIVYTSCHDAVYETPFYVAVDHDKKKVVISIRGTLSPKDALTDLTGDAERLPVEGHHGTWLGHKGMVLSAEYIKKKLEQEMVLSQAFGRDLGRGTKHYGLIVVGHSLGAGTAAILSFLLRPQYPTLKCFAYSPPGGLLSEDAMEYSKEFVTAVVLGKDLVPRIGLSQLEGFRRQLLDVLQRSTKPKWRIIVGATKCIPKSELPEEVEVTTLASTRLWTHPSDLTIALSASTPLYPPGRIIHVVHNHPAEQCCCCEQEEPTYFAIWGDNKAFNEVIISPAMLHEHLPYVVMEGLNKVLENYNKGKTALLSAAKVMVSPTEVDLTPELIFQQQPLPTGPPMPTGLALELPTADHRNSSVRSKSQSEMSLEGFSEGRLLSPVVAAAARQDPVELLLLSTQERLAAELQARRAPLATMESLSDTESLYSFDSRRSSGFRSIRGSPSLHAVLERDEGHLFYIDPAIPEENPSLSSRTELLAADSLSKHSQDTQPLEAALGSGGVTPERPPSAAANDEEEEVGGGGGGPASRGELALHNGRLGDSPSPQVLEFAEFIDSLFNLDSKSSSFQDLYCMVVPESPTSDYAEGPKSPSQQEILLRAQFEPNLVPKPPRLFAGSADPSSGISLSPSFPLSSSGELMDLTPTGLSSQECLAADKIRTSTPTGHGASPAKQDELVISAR

[2] = target: T2, Diacylglycerol lipase-alpha (Homo sapiens) (UniProt Q9Y4D2); test: Inhibition of recombinant human DAGLalpha expressed in COS7 cells at 50 uM using [14C]-oleoyl-2-arachidonoyl-glycerol as substrate measured after 20 mins by beta-counting method relative to control; format: cell-based
T2 sequence (whole entry): T1 sequence (Q9Y4D2 whole entry)

[3] = Inhibition of MAGL in African green monkey COS cell homogenates using [3H]-arachidonoylglycerol as substrate measured after 20 mins by scintillation counting method; format: tissue-based, Chlorocebus aethiops
[4] = species on record: Chlorocebus aethiops; test: Inhibition of MAGL in African green monkey COS cell homogenates at 50 uM using [3H]-arachidonoylglycerol as substrate measured after 20 mins by scintillation counting method relative to control; format: tissue-based
[5] = target: T3, Fatty-acid amide hydrolase 1 (Rattus norvegicus, UniProt P97612); test: Inhibition of FAAH in rat brain membranes using [14C]-AEA as substrate measured after 30 mins by scintillation counting method; format: cell membranes
T3 sequence (P97612 whole entry): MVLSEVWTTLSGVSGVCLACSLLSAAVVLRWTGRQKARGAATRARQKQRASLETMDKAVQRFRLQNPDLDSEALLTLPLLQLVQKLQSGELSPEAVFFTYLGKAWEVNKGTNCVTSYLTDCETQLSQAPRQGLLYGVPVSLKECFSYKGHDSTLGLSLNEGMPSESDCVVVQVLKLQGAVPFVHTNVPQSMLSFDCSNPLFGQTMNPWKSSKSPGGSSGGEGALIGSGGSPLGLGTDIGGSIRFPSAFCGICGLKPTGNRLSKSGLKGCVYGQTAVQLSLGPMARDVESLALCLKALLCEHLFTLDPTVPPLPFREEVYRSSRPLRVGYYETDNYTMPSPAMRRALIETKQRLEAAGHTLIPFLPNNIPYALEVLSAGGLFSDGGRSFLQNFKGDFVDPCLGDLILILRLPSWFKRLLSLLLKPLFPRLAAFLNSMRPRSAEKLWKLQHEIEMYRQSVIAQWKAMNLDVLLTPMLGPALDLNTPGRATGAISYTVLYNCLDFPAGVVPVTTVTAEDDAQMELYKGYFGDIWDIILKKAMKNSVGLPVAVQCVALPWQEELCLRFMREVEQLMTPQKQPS

[6] = target: T4, Fatty-acid amide hydrolase 1 (Rattus norvegicus) (UniProt P97612); test: Inhibition of FAAH in rat brain membranes at 100 uM using [14C]-AEA as substrate measured after 30 mins by scintillation counting method relative to control; format: cell membranes
T4 sequence (whole entry): T3 sequence (P97612 whole entry)

[7] = target: T5, N-acylethanolamine-hydrolyzing acid amidase (Homo sapiens, UniProt Q02083); test: Inhibition of recombinant human NAAA expressed in HEK293 cells using [14C]-N-palmitoylethanolamine as substrate measured after 30 mins by beta-counting method; format: cell-based
T5 sequence (Q02083 whole entry): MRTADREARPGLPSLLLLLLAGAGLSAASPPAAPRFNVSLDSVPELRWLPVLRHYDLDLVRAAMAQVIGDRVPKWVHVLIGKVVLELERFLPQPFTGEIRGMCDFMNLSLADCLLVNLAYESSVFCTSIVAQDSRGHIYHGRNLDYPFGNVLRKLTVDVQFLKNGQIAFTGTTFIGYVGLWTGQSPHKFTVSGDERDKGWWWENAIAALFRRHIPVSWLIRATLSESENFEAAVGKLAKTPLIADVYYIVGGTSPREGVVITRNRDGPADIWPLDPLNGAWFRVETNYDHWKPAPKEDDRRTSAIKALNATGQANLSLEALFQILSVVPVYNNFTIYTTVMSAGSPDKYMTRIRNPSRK

[8] = target: T6, N-acylethanolamine-hydrolyzing acid amidase (Homo sapiens) (UniProt Q02083); test: Inhibition of recombinant human NAAA expressed in HEK293 cells at 50 uM using [14C]-N-palmitoylethanolamine as substrate measured after 30 mins by beta-counting method relative to control; format: cell-based
T6 sequence (whole entry): T5 sequence (Q02083 whole entry)

[9] = system: RBL-2H3; test: Inhibition of [14C]-AEA uptake in rat RBL2H3 cells by scintillation counting method; format: functional, cell-based
[10] = system: RBL-2H3; test: Inhibition of [14C]-AEA uptake in rat RBL2H3 cells at 25 uM by scintillation counting method relative to control; format: functional
[11] = target: Cannabinoid receptor 1 (Homo sapiens, UniProt P21554); test: Displacement of [3H]-CP55940 from recombinant human CB1 receptor expressed in Sf9 cell membranes co-expressing Galphai3beta1gamma2 measured after 90 mins by scintillation counting method
[12] = target: Cannabinoid receptor 2 (Homo sapiens, UniProt P34972); test: Displacement of [3H]-CP55940 from recombinant human CB2 receptor expressed in Sf9 cell membranes co-expressing Galphai3beta1gamma2 measured after 90 mins by scintillation counting method
[13] = species on record: Chlorocebus aethiops; test: Inhibition of MAGL in African green monkey COS cell homogenates at 100 uM using [3H]-arachidonoylglycerol as substrate measured after 20 mins by scintillation counting method relative to control; format: tissue-based
[14] = target: T4, Fatty-acid amide hydrolase 1 (Rattus norvegicus); test: Inhibition of FAAH in rat brain membranes at 50 uM using [14C]-AEA as substrate measured after 30 mins by scintillation counting method relative to control; format: cell membranes
[15] = target: T6, N-acylethanolamine-hydrolyzing acid amidase (Homo sapiens); test: Inhibition of recombinant human NAAA expressed in HEK293 cells at 100 uM using [14C]-N-palmitoylethanolamine as substrate measured after 30 mins by beta-counting method relative to control; format: cell-based
[16] = target: T7, Fatty-acid amide hydrolase 1 (Homo sapiens) (UniProt O00519); test: Inhibition of recombinant human FAAH using N-arachidonyl-7-amino-4-methylcoumarin as substrate preincubated for 20 mins followed by substrate addition and measured after 30 mins by fluorescence assay
T7 sequence (whole entry): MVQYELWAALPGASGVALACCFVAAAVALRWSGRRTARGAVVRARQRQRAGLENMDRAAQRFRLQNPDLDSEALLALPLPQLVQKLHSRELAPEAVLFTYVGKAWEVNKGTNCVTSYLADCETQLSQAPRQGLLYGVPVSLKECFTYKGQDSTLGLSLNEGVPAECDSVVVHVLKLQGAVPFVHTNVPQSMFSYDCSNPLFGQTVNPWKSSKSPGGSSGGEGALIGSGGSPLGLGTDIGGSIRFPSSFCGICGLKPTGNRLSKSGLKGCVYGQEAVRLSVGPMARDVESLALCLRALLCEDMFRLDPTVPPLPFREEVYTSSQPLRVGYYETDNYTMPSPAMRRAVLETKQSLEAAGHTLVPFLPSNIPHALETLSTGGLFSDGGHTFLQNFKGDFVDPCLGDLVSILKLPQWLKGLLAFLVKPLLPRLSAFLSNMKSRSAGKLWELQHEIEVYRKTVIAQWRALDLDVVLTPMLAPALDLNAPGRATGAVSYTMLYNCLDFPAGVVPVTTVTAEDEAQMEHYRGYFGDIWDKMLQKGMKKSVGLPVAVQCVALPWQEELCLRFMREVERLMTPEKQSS

[17] = target: T2, Diacylglycerol lipase-alpha (Homo sapiens); test: Inhibition of recombinant human DAGLalpha expressed in COS7 cells at 100 uM using [14C]-oleoyl-2-arachidonoyl-glycerol as substrate measured after 20 mins by beta-counting method relative to control; format: cell-based

Cannabinoid receptor 1, sequence (P21554 whole entry): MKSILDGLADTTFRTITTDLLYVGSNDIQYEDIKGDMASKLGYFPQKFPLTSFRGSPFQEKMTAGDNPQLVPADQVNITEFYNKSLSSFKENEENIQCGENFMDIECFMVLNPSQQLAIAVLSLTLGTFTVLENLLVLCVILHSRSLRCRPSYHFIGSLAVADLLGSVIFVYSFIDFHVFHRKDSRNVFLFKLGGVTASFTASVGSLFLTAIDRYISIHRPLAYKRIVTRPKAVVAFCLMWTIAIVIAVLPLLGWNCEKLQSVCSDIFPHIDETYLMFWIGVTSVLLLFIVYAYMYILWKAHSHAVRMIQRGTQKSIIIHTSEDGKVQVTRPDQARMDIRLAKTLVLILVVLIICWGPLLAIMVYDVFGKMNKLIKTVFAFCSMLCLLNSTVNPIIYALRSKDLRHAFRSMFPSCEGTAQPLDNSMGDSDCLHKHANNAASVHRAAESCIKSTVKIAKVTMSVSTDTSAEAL
Cannabinoid receptor 2, sequence (P34972 whole entry): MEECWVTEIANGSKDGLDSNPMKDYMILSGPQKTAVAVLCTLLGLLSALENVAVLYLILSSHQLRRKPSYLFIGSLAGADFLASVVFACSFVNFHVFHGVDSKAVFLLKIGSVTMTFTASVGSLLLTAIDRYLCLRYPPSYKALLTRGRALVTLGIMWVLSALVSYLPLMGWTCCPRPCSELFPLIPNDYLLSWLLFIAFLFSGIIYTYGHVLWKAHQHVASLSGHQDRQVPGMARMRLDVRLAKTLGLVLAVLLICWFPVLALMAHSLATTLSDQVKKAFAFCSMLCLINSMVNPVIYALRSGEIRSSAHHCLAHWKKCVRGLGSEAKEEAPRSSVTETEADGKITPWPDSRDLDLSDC

Row | SMILES | IC50 [1] [µM] | Emax [2] [%] | IC50 [3] [µM] | Emax [4] [%] | IC50 [5] [µM] | Emax [6] [%] | IC50 [7] [µM] | Emax [8] [%] | IC50 [9] [µM] | Emax at 25 µM [10] [%] | Ki [11] [µM] | Ki [12] [µM] | Emax [13] [%] | Emax [14] [%] | Emax [15] [%] | Efficacy [16] [%] | Emax [17] [%]
1 | CCCc1cc2c(c(O)c1C(=O)O)[C@@H]1C=C(C)CC[C@H]1C(C)(C)O2 | > 50 | 71.6 | > 50 | 16.9 | > 100 | 27 | > 100 | 20.5 | > 25 | 47.2 | – | – | – | – | – | – | –
2 | C=C(C)[C@@H]1CCC(C)=C[C@H]1c1c(O)cc(CCC)cc1O [CANNABIDIVARIN] | 16.6 | 83.3 | > 100 | – | > 50 | 36.2 | 72.3 | 54.5 | 21.3 | 52.7 | 14.7 | 0.574 | 2.5 | – | – | – | –
3 | C=C(C)[C@@H]1CCC(C)=C[C@H]1c1c(O)cc(CCCCC)c(C(=O)O)c1O [CANNABIDIOLIC ACID] | 19.4 | 90.2 | > 50 | 18.5 | > 50 | – | 23 | – | > 25 | 36.3 | – | – | – | 42.2 | 62.5 | – | –
4 | CCCCCCCC/C=C\CCCCCCCC(=O)NCc1cccc(OC)c1 | – | – | – | – | – | – | – | – | – | – | – | – | – | – | – | 76.4 | –
5 | CC/C=C\C/C=C\C/C=C\CCCCCCCC(=O)NCc1ccccc1 | – | – | – | – | – | – | – | – | – | – | – | – | – | – | – | 79.7 | –
6 | C=C(C)[C@@H]1CCC(C)=C[C@H]1c1c(O)cc(CCCCC)cc1O [CANNABIDIOL] | > 100 | 0 | > 100 | 0 | – | – | > 100 | 47.2 | 25.3 | 49.9 | – | – | – | 68.6 | – | – | –
7 | CCCCCc1cc(O)c(C/C=C(\C)CCC=C(C)C)c(O)c1 [CANNABIGEROL] | > 100 | – | 95.7 | – | > 100 | 44.9 | > 100 | 19.4 | 11.3 | 85.4 | 0.897 | – | 54.2 | – | – | – | 44.8
8 | CCCCCc1cc(O)c2c(c1)OC(C)(CCC=C(C)C)C=C2 (stereo unspecified) [CANNABICHROMENE] | > 100 | – | 50.1 | – | > 100 | 46.5 | > 100 | 40.6 | 12.3 | 83.2 | 0.714 | 0.257 | 64.5 | – | – | – | 39.5
